Measurements reported in PMC3408433, “Selective Cytotoxicity of Amidinopiperidine Based Compounds Towards Burkitt’s Lymphoma Cells Involves Proteasome Inhibition” (PLoS ONE, 2012).

Assays:
[1] = target: T1, chymotrypsin-like activity of human 20S proteasome (Homo sapiens, UniProt P28074); experiment: Proteasome activity measurement, chymotrypsin-like; type: biochemical; settings: purified human 20S proteasome, Suc-Leu-Leu-Val-Tyr-AMC, uncompetitive
T1 construct: purchased Boston Biochem, Inc
Procedure: (§1) Suc-Leu-Leu-Val-Tyr-AMC, Bz-Val-Gly-Arg-AMC and Z-Leu-Leu-Glu-AMC (Bachem, Bubendorf, Switzerland) were used for the chymotrypsin-like, trypsin-like and caspase-like activites, respectively. Assay buffer consisted of TE buffer (20 mM Tris (pH = 8.0), 0.5 mM EDTA, 0.03% SDS). Substrate hydrolysis was continuously monitored at 37°C with an automated microplate reader (Tecan Safire^2). Measured fluorescence values (RFU) were plotted versus time with nonlinear regression to fit a Michaelis-Menten plot.
(§2) For the Ki determination, 25 µL of substrate at three concentrations and 25 µL of inhibitor of interest also at three different concentrations were added to the wells of a white microplate. The reaction was initiated with 50 µL of the enzyme in the assay buffer. Flourescence of the AMC release was continuously monitored at 420 nm with 320 nm excitation.
(§3) Km and Ki were calculated using SigmaPlot 11 (Enzyme Kinetics Module 1.3) and are presented as the mean of three independent experiments.

[2] = system: Ramos Burkitt’s lymphoma cells; experiment: Metabolic activity assay (MTS), Ramos; type: cell-based; settings: Homo sapiens, 24 h, read-out: IC50, inhibition of proliferation (metabolic activity)
[3] = system: human Burkitt’s lymphoma (Daudi); experiment: Metabolic activity assay (MTS), Daudi; type: cell-based; settings: 50 µM, 24 h
Procedure: (§4) Compounds 11, and 14–16 were further tested for selective cytotoxicity. The experiments were conducted on freshly isolated primary peripheral blood mononuclear cells (PBMC) and three other haematological cancers: human T cell leukaemia (Jurkat), human histiocytic lymphoma (U937) and human Burkitt’s lymphoma (Daudi). An MTS assay was performed following 24 h of treatment with the compound of interest at 50 µM. […] The inhibition of proliferation in Ramos cells, mediated with compounds 15 and 16, was concentration dependent.
(§5) Cells (1×10^5 cells/mL for Ramos, Daudi, U937 and Jurkat, and 1×10^6 cells/mL for PBMC) were treated with the appropriate amounts of compounds of interest or corresponding vehicle (control cells), then seeded in triplicate in 96 well plates. The metabolic activity was assessed using the CellTiter 96® Aqueous One Solution Cell Proliferation Assay (Promega, Madison/WI, USA), in accordance with the manufacturer’s instructions.

[4] = target: T2, trypsin-like activity of human 20S proteasome (Homo sapiens, UniProt Q99436); experiment: Proteasome activity measurement, trypsin-like; type: biochemical; settings: for Ki: purified human 20S proteasome, Bz-Val-Gly-Arg-AMC, non-competitive
T2 construct: purchased Boston Biochem, Inc
Procedure: as §1, §2, §3

[5] = system: peripheral blood mononuclear cells (PBMC); experiment: Metabolic activity assay (MTS), PBMC; type: cell-based, human; settings: 50 µM, 24 h
Procedure: as §4, §5

[6] = target: T3, caspase-like activity of human 20S proteasome (Homo sapiens, UniProt P28072); experiment: Proteasome activity measurement, caspase-like; type: biochemical; settings: purified human 20S proteasome, Z-Leu-Leu-Glu-AMC, uncompetitive
T3 construct: purchased Boston Biochem, Inc
Procedure: as §1, §2, §3

[7] = system: NFκB transcriptional activity in Ramos-Blue cells; experiment: Quanti-blue assay, NFκB transcriptional activity (SEAP reporter); type: cell-based, human; settings: 50 µM pretreatment 1 h, TNF-α 100 ng/mL, 8 h
Procedure: Ramos-Blue™ cells (Invivogen), which stably express an NF-κB/AP-1-inducible secreted embryonic alkaline phosphate (SEAP) reporter construct, were assayed for NFκB transcriptional activity changes upon pretreating them with the compound of interest (50 µM) for 1 h and subsequently stimulating them with recombinant TNF-α (100 ng/mL). SEAP activity was determined in the supernatant in accordance with the manufacturer’s instructions. Briefly, to 200 µL of QUANTI-Blue regent 20 µL of cell supernatant was added and incubated at 37°C for 3 h. Abosorbance was measured on microplate reader Tecan Safire^2 at 640 nm.

Ramos cells [8] = experiment: Cell cycle analysis (PI staining); type: cell-based, human; settings: for cell cycle distribution / percentage of cells in the sub-G1 phase (< 2n): 50 µM, 24 h; for percentage of cells in the sub-G1 phase (< 2n): PI staining; for number of hypodiploid cells: 48 h treatment, untreated 3.4%
Procedure: Ramos cells (5×10^5 cells) were treated with the compound of interest for 24 h. The cells were then washed with PBS and subjected to fixation with 80% ethanol at –20°C for 15 min. Fixated cells were pelleted by centrifugation and rehydrated in 5 mL of PBS for 15 min at room temperature. Collected cells were resuspended in 500 µL staining buffer (3 µM propidium iodide, 100 mM Tris, pH 7.4, 150 mM NaCl, 1 mM CaCl2, 0.5 mM MgCl2, 0.1% Nonident P-40). After 15 min of incubation, samples were analysed on a FACScalibur and evaluated using FlowJo software (BD bioscience, Franklin Lakes/NJ, USA).

[9] = system: human histiocytic lymphoma (U937); experiment: Metabolic activity assay (MTS), U937; type: cell-based; settings: U937, 50 µM, 24 h
Procedure: as §4, §5

Ramos cells [10] = experiment: Annexin V/7-AAD assay; type: cell-based, human; settings: 16 h; for percentage of Annexin V positive cells: 50 µM, untreated 4% (Figure 5A)
Procedure: We used a PE Annexin V Apoptosis Detection Kit I (BD Biosciences) in accordance with the manufacturer’s instructions. Put briefly, Ramos cells were, following their treatment with the compound of interest, washed with cold PBS and resuspended in 1× binding buffer at a […] concentration. 100 µL of cell suspension was transferred to a 5 mL tube and 5 µL of both PE Annexin V and 7-AAD was added. The suspension was gently vortexed and incubated for 15 min at room temperature in the dark. Following this, 400 µL of 1× binding buffer was added and samples were analysed using a FACScalibur flow cytometer.

[11] = presence of zVADfmk 50 µM (Figure 5D)

N=C(N)N1CCC(CN(NS(=O)(=O)c2ccc3ccccc3c2)C(=O)N2CCCCC2)CC1 [Compound 15]
Ki ' chymotrypsin-like activity [1]: Ki ' = 84±15 µM | IC50 [2]: 18 µM | residual metabolic activity relative to control [3]: severe and selective decrease | Ki [4]: 13 µM | residual metabolic activity relative to control [5]: no or only moderate decreases | Ki ' caspase-like activity [6]: Ki ' = 165±26 µM | reduction of TNF-α-induced NFκB activity (SEAP) [7]: over 60% | cell cycle distribution (Ramos cells [8]): accumulation of cells in the S phase | percentage of cells in the sub-G1 phase (< 2n) (Ramos cells [8]): 8.7% | number of hypodiploid cells (Ramos cells [8]): 42.5% | residual metabolic activity relative to control [9]: no or only moderate decreases | percentage of Annexin V positive cells (Ramos cells [10]): 57%

N=C(N)N1CCC(CN(NS(=O)(=O)c2ccc3ccccc3c2)C(=O)N2CCCCCC2)CC1 [Compound 16]
Ki ' chymotrypsin-like activity [1]: Ki ' = 37±13 µM | IC50 [2]: 22 µM | residual metabolic activity relative to control [3]: severe and selective decrease | mode of inhibition, trypsin-like activity ([4]; SigmaPlot 11): non-competitive | Ki [4]: 17 µM | residual metabolic activity relative to control [5]: no or only moderate decreases | Ki ' caspase-like activity [6]: Ki ' = 70±3 µM | reduction of TNF-α-induced NFκB activity (SEAP) [7]: over 60% | cell cycle distribution (Ramos cells [8]): accumulation of cells in the S phase | percentage of cells in the sub-G1 phase (< 2n) (Ramos cells [8]): 22.7% | number of hypodiploid cells (Ramos cells [8]): 51.1% | residual metabolic activity relative to control [9]: no or only moderate decreases | percentage of Annexin V positive cells (Ramos cells [10]): 39% | Annexin V positive cells (lower right quadrant) (Ramos cells [10]; absence of zVADfmk (Figure 5D)): 30% | living cells (lower left quadrant, Annexin V/7-AAD) (Ramos cells [10]; absence of zVADfmk (Figure 5D)): 62% | Annexin V positive cells (lower right quadrant) (Ramos cells [10]; [11]): 11% | living cells (lower left quadrant, Annexin V/7-AAD) (Ramos cells [10]; [11]): 82%
